# According to patent US20030170252A1, “Antibody compositions specific for p33QIK and p63Krs1 polypeptides and uses thereof” (priority 2000, published 2003):
# Legend:
# p33^QIK [1] = test: In-gel kinase assay (MBP substrate) of p33^QIK activity in treated NIH3T3 cultures; assay type: cell-based, mouse
# Experimental: (§1) Mouse NIH3T3 fibroblast cultures were maintained in Dulbecco's modified Eagle's medium (DMEM)(BRL/GIBCO, Grand Island, N.Y.) supplemented with 5% calf serum, 50 units/ml penicillin, and 5 mcg/ml streptomycin, and cultivated at 37° C.
# (§2) Mouse 10T1/2 fibroblast cultures were maintained in Basal medium Eagle (BRL/GIBCO, Grand Island, N.Y.) supplemented with 10% heat-inactivated fetal bovine serum, 50 U/ml penicillin, and 5 μg/ml streptomycin, and cultivated at 37° C. Cells synchronized in quiescent state were growth-arrested by serum starvation for 48 hr. Actinomycin D (ActD), cycloheximide (CHXM), 12-0-tetradecanoylphorbol 13-acetate (TPA), staurosporine (STSP) (Sigma Chemical, St. Louis, Mo.), sodium fluoride (NaF), sodium orthovanadate (Na3VO4) (Fisher Scientific, Pittsburgh, Pa.), and FR901228 (FR)(NCI, Frederick, Md.) were diluted in cultured medium before treatment of cultured cells. A broad range caspase inhibitor Z-Asp-[(2,6-dichlorobenzoyl)oxy]methane (Z-D-CH2-DCB) (Dolle et al., 1994; Mashima et al., 1995)(CALBIOCHEM, La Jolla, Calif.) was dissolved in dimethyl sulfoxide and diluted in cultured medium for treatment. Recombinant human Caspase-3 was purchased from Alexis Biochemicals (San Diego, Calif.). Protein phosphatase 1 (PP1) and Lambda protein phosphatase (λPPase) were purchased from NE BioLabs (Beverly, Mass.). Production of rabbit polyclonal antibody Ab-KQ to p63^Krsl and p33^QIK was made using peptide sequences of Krsl as antigens (Alpha Diagnostic International, San Antonio, Tex.). UV irradiation was carried out using a UV Crosslinker (Stratagene, La Jolla, Calif.).
# (§3) Cells were lysed with 30 strokes of a tight-fitting Dounce homogenizer in lysis A buffer (10 mM KH2PO4, 1 mM EDTA, 5 mM EGTA, 10 mM MgCl2, 50 mM […], 1 mM Na3VO4, 2 mM dithiothreitol) (Wang et al., 1992). Cytoplasmic proteins (S20) were isolated from the supernatants after centrifugation of crude lysates at 20,000 ×g for 20 min. Protein concentration in S20 was measured by using the BCA assay (Pierce, Rockford, Ill.). Immunoprecipitation of p33^QIK was carried out by incubation of S20 with the specific antibody Ab-KQ at 0° C. for 1 hr. Immune complexes were adsorbed to Pansorbin (Staphylococcus aureus) (CALBIOCHEM, La Jolla, Calif.) at 0° C. for 30 min and washed with STE buffer (50 mM Tris-HCl, pH 7.0, 150 mM NaCl, 1 mM Na2 EDTA) supplemented with 0.1 mM DTT and 0.1% NP-40 and ST buffer supplemented with 1 mM DTT.
# (§4) MBP (BRL/GIBCO, Grand Island, N.Y.) was used as a substrate in the assay and the in-gel kinase assay was performed as previously described (Wang et al., 1992). Briefly, 10% SDS-polyacrylamide gel (SDS-PAG) was copolymerized with 0.4 mg/ml MBP. Cellular proteins were resolved in the MBP-immobilized SDS-PAG, followed by rinsing the gel with 20% isopropanol in buffer B (100 mM Tris, pH 8, 5 mM β-mercaptoethanol). The gel was denatured in buffer B supplemented with 6 M guanidine-HCl and renatured with buffer B supplemented with 0.04% Tween 40 (Kameshita and Fujisawa, 1989). Kinase reaction was carried out by incubating the gel with kinase buffer (20 Mm Tris, pH 7.2, 10 mM MgCl2, 15 mM β-glycerolphosphate) supplemented with 50 μM γATP and 50 μCi of [γ-^32P]ATP at 22° C. for 30 min. The gel was washed with 1% sodium pyrophosphate in 5% trichloroacetic acid. Protein kinases which phosphorylated MBP in the gel were detected by autoradiography of the [γ^32P]-labeled MBP.
# p44/42^Erk = assay type: cell-based, mouse; settings: quiescent NIH3T3 cultures (48 hr serum starvation) stimulated with reagent, 1-6 hr
# Experimental: as §1, §2, §3, §4
# 33 kDa-MBP kinase = settings: MCF-7 and MDA-MB361 cells treated with FR (Rajgolikar et al., 1998); cited from earlier work
# NIH3T3 cells = test: Flow cytometric analysis of DNA content (cell cycle phase); assay type: cell-based, mouse
# Experimental: After rinsing with phosphate buffered saline (PBS), cells were trypsinized from culture dishes, rinsed with Ca^++ and Mg^++ free PBS, fixed in 70% cold ethanol, and stained with 10 μg/ml propidium iodide (PI) for 30 min (Darzynkiewicz et al., 1995). Flow cytometry analysis was performed on the Coulter EPICS Elite Cytometer (Hialeah, Fla.) using 15 mW air-cooled argon laser producing 488-nm light in which PI fluorescence light emission is collected with a 610LPDC filter. Extended analysis of DNA content and calculation of the percentage of cells in each phase of the cell cycle were performed on Multicycle software (Phoenix Flow System, San Diego, Calif.).
# p33^QIK [2] = test: In-gel kinase assay of p33^QIK activity in 10T1/2 cultures; assay type: cell-based; settings: mouse fibroblast 10T1/2 cultures treated with FR
# Experimental: as §2, with “Production of rabbit polyclonal antibody Ab-KQ to p63^Krsl and p33^QIK was made using peptide sequences of Krsl as antigens (Alpha Diagnostic International, San Antonio, Tex.). UV irradiation was carried out using a UV Crosslinker (Stratagene, La Jolla, Calif.).” left out
# (§5) MBP (BRL/GIBCO, Grand Island, N.Y.) was used as a substrate in the assay and the in-gel kinase assay was performed as previously described (Wang et al., 1992). […] Protein kinases which phosphorylated MBP in the gel were detected by autoradiography of the [γ^32P]-labeled MBP.
# cells = settings: cited from earlier work
# p63^Krsl = test: In-gel kinase assay (MBP substrate) of p63^Krsl activity in treated NIH3T3 cultures; assay type: cell-based, mouse
# Experimental: as §1
# Mouse 10T1/2 fibroblast cultures were maintained in Basal medium Eagle (BRL/GIBCO, Grand Island, N.Y.) supplemented with 10% heat-inactivated fetal bovine serum, 50 U/ml penicillin, and 5 μg/ml streptomycin, and cultivated at 37° C. Cells synchronized in quiescent state were growth-arrested by serum starvation for 48 hr. […]
# Cells were lysed with 30 strokes of a tight-fitting Dounce homogenizer in lysis A buffer (10 mM KH2PO4, 1 mM EDTA, 5 mM EGTA, 10 mM MgCl2, 50 mM […], 1 mM Na3VO4, 2 mM dithiothreitol) (Wang et al., 1992). […] Protein concentration in S20 was measured by using the BCA assay (Pierce, Rockford, Ill.). […]
# as §5
# [3] = quiescent NIH3T3 cultures (48 hr serum starvation) stimulated with reagent, 1-6 hr
# [4] = proliferating NIH3T3 cultures, 5 nM FR, 24 hr
# [5] = NIH3T3 synchronized by serum starvation, 18 hr serum, then 10 nM STSP for 24 hr
compound,measurement,setting,value
"CCCCCCCCCCCCCC(=O)O[C@@H]1[C@@H](C)[C@@]2(O)[C@@H](C=C(CO)C[C@]3(O)C(=O)C(C)=C[C@@H]23)[C@H]2C(C)(C)[C@]12OC(C)=O [phorbol ester, 12-0-tetradecanoylphorbol 13-acetate]",kinase activity of p33^QIK,p33^QIK [1]; [3],progressive decrease of p33^QIK activity
same,kinase activity of p44/42^Erk,p44/42^Erk,transient induction of p44/42^Erk activity
"C/C=C1\NC(=O)[C@H]2CSSCC/C=C/[C@H](CC(=O)N[C@H](C(C)C)C(=O)N2)OC(=O)[C@H](C(C)C)NC1=O [FR, FR901228]",kinase activity of p33^QIK,p33^QIK [1]; [4],p33^QIK activity was induced
same,33 kDa-MBP kinase activity,33 kDa-MBP kinase,induction of a 33 kDa-MBP kinase activity
same,cell population in each phase of the cell cycle,NIH3T3 cells; [4],growth arrest of cells in G0/G1 phase was evident
same,kinase activity of p33^QIK,p33^QIK [2],Activation of p33^QIK was also detected
[F-].[Na+] [sodium fluoride],kinase activity of p33^QIK,p33^QIK [1]; [3],resulted in deactivation of p33^QIK
same,kinase activity of p44/42^Erk,p44/42^Erk,induced p44/42^Erk activity
"CN[C@@H]1C[C@H]2O[C@@](C)([C@@H]1OC)n1c3ccccc3c3c4c(c5c6ccccc6n2c5c31)C(=O)NC4 [STSP, staurosporine]",kinase activity of p33^QIK,p33^QIK [1]; [5],activation of p33^QIK was detected
same,concentration arresting cells in G2 phase,cells; high concentration,100 to 150 nM
same,concentration arresting cells in early G1 phase,cells; low concentration,2 to 20 nM
same,cell population in each phase of the cell cycle,NIH3T3 cells; [5],a major population of cells was arrested in G0/G1 state
same,kinase activity of p63^Krsl,"p63^Krsl; quiescent NIH3T3 cultures, 100 nM STSP, 2 hr",activated p63^Krsl
C=C1[C@@H](O)[C@@H]2O[C@]3(CC[C@H](/C=C/[C@@H](C)[C@@H]4CC(C)=C[C@@]5(O[C@H](C[C@@](C)(O)C(=O)O)CC[C@H]5O)O4)O3)CC[C@H]2O[C@@H]1[C@@H](O)C[C@H](C)[C@H]1O[C@@]2(CCCCO2)CC[C@H]1C [okadaic acid],kinase activity of p33^QIK,p33^QIK [1]; [3],did not result in deactivation of p33^QIK
same,kinase activity of p63^Krsl,p63^Krsl; quiescent NIH3T3 cultures stimulated with reagent,activated p63^Krsl
